In data set [1] the test system is Glomerella lagenarium (Colletotrichum lagenarium). Description: Fungicidal activity against Glomerella lagenarium (Colletotrichum lagenarium) liquid culture / cucumber / preventative (anthracnose). In kind it is cell-based. Conditions: Colletotrichum orbiculare; 20 ppm in the applied formulation; liquid culture (PDB), growth inhibition measured photometrically after 3 to 4 days; compared to untreated control; read-out: disease control. The method, boiled down:
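Photometric read-out of fungal growth after 2–7 days, expressed as percent antifungal activity versus untreated check. Cryo-stored conidia in PDB; compound at 20 ppm; dark, 24 °C, 96% RH.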

Data set [2] deals with Puccinia recondita f. Sp. Tritici. Description: Fungicidal activity against Puccinia recondita f. sp. tritici / wheat / leaf disc preventative (brown rust). In kind it is in vivo. Conditions: foliar, 200 ppm in the applied formulation, wheat leaf segments, preventative, compared to untreated control leaf disks, read-out: disease control. The method, boiled down:
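Preventative leaf-segment test, wheat cv. Kanzler on water agar. Spray compound at 200 ppm, inoculate with spores 1 day later; 19° C., 75% rh, 12/12 h light. Read-out: % disease control vs untreated, 7 to 9 days after application.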

Data set [3] has the same test system. Nature of the data set: Fungicidal activity against Puccinia recondita f. sp. tritici / wheat / leaf disc curative (brown rust). The following applies: foliar, 24 h, 200 ppm in the applied formulation, wheat leaf segments, curative (applied 1 day after inoculation), compared to untreated control leaf disks, read-out: disease control. In kind it is in vivo. The method, boiled down:
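Segments of wheat cv. Kanzler were laid on agar and inoculated with a spore suspension of the rust, then held in darkness at 19° C and 75% relative humidity. One day later the water-diluted formulated compound was applied, with incubation continued under a 12 h light/dark cycle.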

A further data set has as its system Phakopsora Pachyrhizi. Nature of the data set: Fungicidal activity against Phakopsora pachyrhizi / soybean / leaf disc preventative (Asian soybean rust). The class given is in vivo. The following applies: foliar, 200 ppm in the applied formulation, soybean leaf disks, compared to untreated control leaf disks, read-out: disease control. An outline of the steps:
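Preventative soybean leaf-disc test: discs on water agar sprayed with diluted formulated compound, inoculated one day later with spores on the lower surface. Held 24–36 h dark at 20°C, 75% rh, then 12 h light/day; percent disease control versus untreated discs scored 12–14 days after application.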

Some results are limits rather than exact numbers.

Regarding `CON(Cc1ccc(-c2noc(C(F)(F)F)n2)cc1)C(=O)CBr` [Compound 1.806, 2-bromo-N-methoxy-N-[[4-[5-(trifluoromethyl)-1,2,4-oxadiazol-3-yl]phenyl]methyl]-acetamide], the melting point – broadly, the temperature, or range, at which the solid turns liquid – fell in the range of 81.2 to 84.9 °C.

`CON(Cc1ccc(-c2noc(C(F)(F)F)n2)cn1)C(=O)c1ccccc1Cl` [Compound 1.572, 2-chloro-N-methoxy-N-[[5-[5-(trifluoromethyl)-1,2,4-oxadiazol-3-yl]-2-pyridyl]methyl]-benzamide] came in with a melting point of 80 to 89 °C. The inhibition of growth at 20 ppm in data set [1] is no less than 80%. Also, the pest or weed control at 200 ppm in data set [2] is no less than 80%.

`CNC(=O)N(Cc1ccc(-c2noc(C(F)(F)F)n2)cc1)C1CC1` [Compound 3.35, 1-cyclopropyl-3-methyl-1-[[4-[5-(trifluoromethyl)-1,2,4-oxadiazol-3-yl]phenyl]methyl]urea] showed a melting point of 113 to 114 °C. Also, in data set [1], the inhibition of growth at 20 ppm is no less than 80%. For the same compound, the pest or weed control at 200 ppm in data set [2] is no less than 80%.

As for `CN(Cc1ccc(-c2noc(C(F)(F)F)n2)cc1)C(=O)CO` [Compound 1.593, 2-hydroxy-N-methyl-N-[[4-[5-(trifluoromethyl)-1,2,4-oxadiazol-3-yl]phenyl]methyl]-acetamide], the melting point fell in the range of 54 to 60 °C. Also, in data set [3], the pest or weed control at 200 ppm is no less than 80%. Also, in data set [1], the inhibition of growth at 20 ppm was no less than 80%. Further, the pest or weed control at 200 ppm in data set [2] is no less than 80%.

For `CCC(=O)NCC(=O)N(Cc1ccc(-c2noc(C(F)(F)F)n2)cc1)OC` [Compound 1.793, N-[2-[methoxy-[[4-[5-(trifluoromethyl)-1,2,4-oxadiazol-3-yl]phenyl]methyl]-amino]-2-oxo-ethyl]propanamide], the melting point lay within 115.3 to 117.8 °C. In data set [3], the pest or weed control at 200 ppm is no less than 80%. For the same compound, the inhibition of growth at 20 ppm in data set [1] was no less than 80%. For the same compound, the pest or weed control at 200 ppm in data set [2] was no less than 80%.

Compound `CON(Cc1ccc(-c2noc(C(F)(F)F)n2)cc1)C(=O)C(C)NC(=O)OC(C)(C)C` (stereo not shown) [Compound 1.791, tert-butyl N-[2-(methoxy-[[4-[5-(trifluoromethyl)-1,2,4-oxadiazol-3-yl]phenyl]methyl]-amino]-1-methyl-2-oxo-ethyl]carbamate] displayed a melting point of 108.8 to 111.9 °C. For the same compound, the pest or weed control at 200 ppm in data set [3] is no less than 80%. Besides, the inhibition of growth at 20 ppm in data set [1] is no less than 80%. Moreover, the pest or weed control at 200 ppm in data set [2] is no less than 80%.

As to `CON(Cc1ccc(-c2noc(C(F)(F)F)n2)cc1)C(=O)Cn1cncn1` [Compound 1.808, N-methoxy-2-(1,2,4-triazol-1-yl)-N-[[4-[5-(trifluoromethyl)-1,2,4-oxadiazol-3-yl]phenyl]methyl]-acetamide], the melting point was 125.1 to 127.2 °C.

`CON(Cc1ccc(-c2noc(C(F)(F)F)n2)cc1)C(=O)CNC(C)=O` [Compound 1.794, 2-acetamido-N-methoxy-N-[[4-[5-(trifluoromethyl)-1,2,4-oxadiazol-3-yl]phenyl]methyl]-acetamide]: the melting point was 132.8 to 134.9 °C. Further, in data set [3], the pest or weed control at 200 ppm is no less than 80%. For the same compound, the inhibition of growth at 20 ppm in data set [1] was no less than 80%. Besides, the pest or weed control at 200 ppm in data set [2] is no less than 80%.

Turning to `CCC(=O)NC(C(=O)N(Cc1ccc(-c2noc(C(F)(F)F)n2)cc1)OC)C(C)C` (stereo not shown) [Compound 1.802, N-methoxy-3-methyl-2-(propanoylamino)-N-[[4-[5-(trifluoromethyl)-1,2,4-oxadiazol-3-yl]phenyl]methyl]-butanamide], the melting point lay within 98.5 to 100.6 °C.

The compound `CON(Cc1ccc(-c2noc(C(F)(F)F)n2)cc1)C(=O)NCC1CC1(F)F` (stereo not shown) [Compound 3.103, 3-[(2,2-difluorocyclopropyl)-methyl]-1-methoxy-1-[[4-[5-(trifluoromethyl)-1,2,4-oxadiazol-3-yl]phenyl]methyl]urea] displayed a melting point of 81 to 84 °C. Besides, in data set [3], the pest or weed control at 200 ppm is no less than 80%. Also, the inhibition of growth at 20 ppm in data set [1] is no less than 80%. The pest or weed control at 200 ppm in data set [2] is no less than 80%.

`CCOC(=O)c1cnn(CC(=O)N(Cc2ccc(-c3noc(C(F)(F)F)n3)cc2)OC)c1` [Compound 1.807, ethyl 1-[2-[methoxy-[[4-[5-(trifluoromethyl)-1,2,4-oxadiazol-3-yl]phenyl]methyl]-amino]-2-oxo-ethyl]pyrazole-4-carboxylate] showed a melting point of 79.1 to 80.4 °C.

Turning to `CCC(=O)NC(C)C(=O)N(Cc1ccc(-c2noc(C(F)(F)F)n2)cc1)OC` (stereo not shown) [Compound 1.797, N-methoxy-2-(propanoylamino)-N-[[4-[5-(trifluoromethyl)-1,2,4-oxadiazol-3-yl]phenyl]methyl]-propanamide], the melting point lay within 121.7 to 123.9 °C.

As to `CON(Cc1ccc(-c2noc(C(F)(F)F)n2)cc1)C(=O)CNC(=O)OC(C)(C)C` [Compound 1.787, tert-butyl N-[2-(methoxy-[[4-[5-(trifluoromethyl)-1,2,4-oxadiazol-3-yl]phenyl]methyl]-amino]-2-oxo-ethyl]carbamate], the melting point fell in the range of 80 to 83.1 °C. Further, in data set [3], the pest or weed control at 200 ppm is no less than 80%. In addition, the inhibition of growth at 20 ppm in data set [1] is no less than 80%. For the same compound, in data set [2], the pest or weed control at 200 ppm is no less than 80%.

Turning to `CCC(=O)N1CCCC1C(=O)N(Cc1ccc(-c2noc(C(F)(F)F)n2)cc1)OC` (stereo not shown) [Compound 1.803, N-methoxy-1-propanoyl-N-[[4-[5-(trifluoromethyl)-1,2,4-oxadiazol-3-yl]phenyl]methyl]-pyrrolidine-2-carboxamide], the melting point lay in the range of 148.2 to 150.6 °C.

The compound `CON(Cc1ccc(-c2noc(C(F)(F)F)n2)cc1)C(=O)C1CCCN1C(C)=O` (stereo not shown) [Compound 1.805, 1-acetyl-N-methoxy-N-[[4-[5-(trifluoromethyl)-1,2,4-oxadiazol-3-yl]phenyl]methyl]-pyrrolidine-2-carboxamide] registered a melting point of 93.9 to 96.8 °C.

`CNC(=O)CNC(=O)N(Cc1ccc(-c2noc(C(F)(F)F)n2)cc1)OC` [Compound 3.50, 2-[[methoxy-[[4-[5-(trifluoromethyl)-1,2,4-oxadiazol-3-yl]phenyl]methyl]-carbamoyl]amino]-N-methyl-acetamide] yielded a melting point of 126 to 130 °C. In data set [3], the pest or weed control at 200 ppm is no less than 80%. Further, the pest or weed control at 200 ppm in data set [2] was no less than 80%.

As to `CON(Cc1ccc(-c2noc(C(F)(F)F)n2)cc1)C(=O)C(C)NC(=O)C1CC1` (stereo not shown) [Compound 1.798, N-[2-(methoxy-[[4-[5-(trifluoromethyl)-1,2,4-oxadiazol-3-yl]phenyl]methyl]-amino]-1-methyl-2-oxo-ethyl]-cyclopropane-carboxamide], the melting point fell in the range of 129.7 to 134 °C.

Regarding `CON(Cc1ccc(-c2noc(C(F)(F)F)n2)cc1)C(=O)C1CCCN1.Cl` (stereo not shown), the melting point lay within 185.5 to 188.5 °C.

Take `CON(Cc1ccc(-c2noc(C(F)(F)F)n2)cc1)C(=O)C(C)N.Cl` (stereo not shown) [Compound 1.792, [2-[methoxy-[[4-[5-(trifluoromethyl)-1,2,4-oxadiazol-3-yl]phenyl]methyl]-amino]-1-methyl-2-oxo-ethyl]ammonium; chloride]: the melting point was in the range of 200.7 to 203.2 °C. For the same compound, the pest or weed control at 200 ppm in data set [3] was no less than 80%. Besides, in data set [2], the pest or weed control at 200 ppm is no less than 80%.

As for `CON(Cc1ccc(-c2noc(C(F)(F)F)n2)cc1)C(=O)C1CCSCC1` [Compound 1.46, N-methoxy-N-[[4-[5-(trifluoromethyl)-1,2,4-oxadiazol-3-yl]phenyl]methyl] tetrahydrothiopyran-4-carboxamide], the pest or weed control at 200 ppm (with Phakopsora Pachyrhizi; in data set [3]; in data set [2]) was no less than 80% throughout. For the same compound, in data set [1], the inhibition of growth at 20 ppm was no less than 80%.

In the case of `CON(Cc1ccc(-c2noc(C(F)(F)F)n2)cc1F)C(=O)C1CC1` [Compound 1.566, N-[[2-fluoro-4-[5-(trifluoromethyl)-1,2,4-oxadiazol-3-yl]phenyl]methyl]-N-methoxy-cyclopropane-carboxamide], the pest or weed control at 200 ppm (in the data set with Phakopsora Pachyrhizi; in data set [3]; in data set [2]) was no less than 80% throughout. Moreover, the inhibition of growth at 20 ppm in data set [1] is no less than 80%.

For `CON(Cc1ccc(-c2noc(C(F)(F)F)n2)cc1)C(=O)C1CCCCC1` [Compound 1.16, N-methoxy-N-[[4-[5-(trifluoromethyl)-1,2,4-oxadiazol-3-yl]phenyl]methyl]-cyclohexane-carboxamide], the pest or weed control at 200 ppm (in the data set with Phakopsora Pachyrhizi; in data set [3]; in data set [2]) was no less than 80% each time. In data set [1], the inhibition of growth at 20 ppm is no less than 80%.

Take `CCON(Cc1ccc(-c2noc(C(F)(F)F)n2)cc1)C(=O)C1CC1(F)F` (stereo not shown) [Compound 1.615, N-ethoxy-2,2-difluoro-N-[[4-[5-(trifluoromethyl)-1,2,4-oxadiazol-3-yl]phenyl]methyl]-cyclopropane-carboxamide]: the pest or weed control at 200 ppm (in the data set on Phakopsora Pachyrhizi; in data set [3]; in data set [2]) was no less than 80% throughout. Moreover, the inhibition of growth at 20 ppm in data set [1] is no less than 80%.

The values above are taken from patent publication US11180462B2, “Microbiocidal oxadiazole derivatives” (SYNGENTA PARTICIPATIONS AG, priority 2015, dated 2021).
